The source of these data is EP4781984A1 (Beyang Therapeutics Co., Ltd., priority 2023, dated 2025).

Data set [1] deals with T1, EGFR (Homo sapiens, UniProt P00533).
T1 construct: purchased Carna 08-115
The experiment in a line: Kinase inhibitory activity, Mobility Shift Assay (EGFR). The format is biochemical. The method, then:
(§1) Assay for Inhibitory Activity of Compounds Against VEGFR and EGFR Kinases
(§2) This assay directly monitors the inhibitory activity of compounds on kinase phosphorylation by measuring non-phosphorylated and phosphorylated substrates in the kinase reaction using Mobility Shift Assays/IMAP™ analysis. Table 2. Reagents and Instruments
(§3) Kinase and DTT were added to 1X kinase buffer to form a 2.5X kinase solution; 10 µL of the 2.5X kinase solution was transferred to a 384-well reaction plate, and 1X kinase buffer was added to the negative control wells. The plate was incubated at room temperature for 10 minutes; FAM-labeled peptide, MgCl2, ATP, and other reagents were added to 1X kinase buffer to form a 2.5X substrate solution; 10 µL of the above 2.5X substrate solution was transferred to the 384-well reaction plate; the plate was incubated at 28°C for varying times, and then 25 µL of stop solution was added to the 384-well reaction plate to terminate the reaction. Conversion rate data were read on a CaliperEZ Reader II. […] IC50 values were fitted using XLFit excel add-in version 5.4.0.8. Y = Bottom + (Top−Bottom)/(1 + […]) [formula]
(§4) X is the log value of compound concentration, Y is the inhibition rate (% inhibition).

For data set [2], the target named is T2, VEGFR2 (Homo sapiens, UniProt P35968).
T2 construct: purchased Carna 08-191
The experiment in a line: Kinase inhibitory activity, Mobility Shift Assay (VEGFR2). The format is biochemical. Put shortly:
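Each kinase pre-incubated 10 min at room temperature, then FAM-labelled peptide with MgCl2 and ATP added; reaction at 28 °C for kinase-dependent times before stop. Substrate conversion read by mobility shift; IC50 from a four-parameter fit of % inhibition against log concentration.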

For data set [3], the target named is T3, VEGFR3 (Homo sapiens, UniProt P35916).
T3 construct: purchased Invitrogen PV4129
Put plainly: Kinase inhibitory activity, Mobility Shift Assay (VEGFR3). The format is biochemical. The method, then: as §1, §2, §3, §4

For data set [4], the target named is T4, VEGFR1 (Homo sapiens, UniProt P17948).
T4 construct: purchased Invitrogen PR6731B
Put plainly: Kinase inhibitory activity, Mobility Shift Assay (VEGFR1). The format is biochemical. The method, then: as §1, §2, §3, §4

Data set [5] deals with melanin. The experiment in a line: Compound binding to melanin. The format is in vitro ADME. As to conditions: cuttlefish (Sepia officinalis), melanin suspension (1 mg/mL), percentage of free drug (not bound to melanin), 2 µM compound, melanin 1 mg/mL in PBS pH 7.4, 37°C. Put shortly: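 Compound at 2 µM final incubated with 1 mg/mL Sepia melanin in PBS pH 7.4, 37°C, 2 hours with shaking; blank in PBS with 0.1% BSA. Supernatant concentration by LC-MS/MS. Fb = 100 − (Ctest/Ccontrol) × 100%.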

Data set [6] in a line: Thermodynamic solubility test. The format is physicochemical. As to conditions: buffer solution, aqueous buffer, thermodynamic from solid; thermodynamic solubility, room temperature, 8 hours shaking; buffers pH 2.0, 6.5, 7.4 used, pH of the tabulated value not given. The method, boiled down: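 Samples sonicated 10 min, shaken 8 h at room temperature, re-sonicated and centrifuged at 13000 rpm for 15 min. Supernatant recentrifuged and analysed by LC-MS, with concentrations quantified against a 3–5 point calibration curve.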

Usually IC50 stands for the concentration that gives 50% inhibition. As a reminder, the fraction unbound is the share of the substance not bound to proteins or other matrix. As usually defined, the solubility is how much of the substance goes into solution per volume.

Values after ≈ are worked out from the molar mass of the structure shown.

T3 sequence (P35916 25-1363): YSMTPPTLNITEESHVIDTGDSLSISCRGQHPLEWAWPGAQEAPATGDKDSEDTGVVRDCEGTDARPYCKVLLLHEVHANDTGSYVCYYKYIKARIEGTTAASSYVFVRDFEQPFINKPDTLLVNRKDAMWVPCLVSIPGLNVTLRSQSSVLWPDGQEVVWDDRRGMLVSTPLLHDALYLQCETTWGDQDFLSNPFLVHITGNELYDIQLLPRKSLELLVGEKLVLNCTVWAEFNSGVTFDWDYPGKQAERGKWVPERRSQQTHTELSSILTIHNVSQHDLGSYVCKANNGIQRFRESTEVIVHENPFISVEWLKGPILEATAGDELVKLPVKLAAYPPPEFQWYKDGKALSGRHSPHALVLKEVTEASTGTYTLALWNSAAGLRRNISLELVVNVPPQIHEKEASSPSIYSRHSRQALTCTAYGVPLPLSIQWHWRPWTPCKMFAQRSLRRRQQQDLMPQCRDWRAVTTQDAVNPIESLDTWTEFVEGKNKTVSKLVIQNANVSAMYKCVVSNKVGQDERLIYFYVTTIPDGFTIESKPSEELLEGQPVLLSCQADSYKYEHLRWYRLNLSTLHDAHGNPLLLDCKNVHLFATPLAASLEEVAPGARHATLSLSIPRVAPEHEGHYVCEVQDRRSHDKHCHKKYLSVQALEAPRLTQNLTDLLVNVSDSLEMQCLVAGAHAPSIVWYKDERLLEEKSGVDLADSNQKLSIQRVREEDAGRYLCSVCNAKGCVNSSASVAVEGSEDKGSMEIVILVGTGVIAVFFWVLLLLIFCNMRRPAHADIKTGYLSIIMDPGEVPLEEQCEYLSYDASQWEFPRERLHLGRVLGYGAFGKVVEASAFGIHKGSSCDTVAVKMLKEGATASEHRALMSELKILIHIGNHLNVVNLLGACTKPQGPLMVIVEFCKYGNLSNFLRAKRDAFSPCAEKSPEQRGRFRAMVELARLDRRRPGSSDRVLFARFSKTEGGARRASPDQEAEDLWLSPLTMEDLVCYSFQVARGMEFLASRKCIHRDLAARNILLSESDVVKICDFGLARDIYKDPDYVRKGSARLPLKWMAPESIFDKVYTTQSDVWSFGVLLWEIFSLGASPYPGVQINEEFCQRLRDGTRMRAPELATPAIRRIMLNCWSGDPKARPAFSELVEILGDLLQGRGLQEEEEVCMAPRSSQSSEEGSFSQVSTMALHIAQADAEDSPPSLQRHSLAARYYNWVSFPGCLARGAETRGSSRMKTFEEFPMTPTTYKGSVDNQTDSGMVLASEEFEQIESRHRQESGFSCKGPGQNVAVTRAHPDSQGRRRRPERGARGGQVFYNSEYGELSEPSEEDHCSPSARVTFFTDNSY
T1 sequence (P00533 25-1210): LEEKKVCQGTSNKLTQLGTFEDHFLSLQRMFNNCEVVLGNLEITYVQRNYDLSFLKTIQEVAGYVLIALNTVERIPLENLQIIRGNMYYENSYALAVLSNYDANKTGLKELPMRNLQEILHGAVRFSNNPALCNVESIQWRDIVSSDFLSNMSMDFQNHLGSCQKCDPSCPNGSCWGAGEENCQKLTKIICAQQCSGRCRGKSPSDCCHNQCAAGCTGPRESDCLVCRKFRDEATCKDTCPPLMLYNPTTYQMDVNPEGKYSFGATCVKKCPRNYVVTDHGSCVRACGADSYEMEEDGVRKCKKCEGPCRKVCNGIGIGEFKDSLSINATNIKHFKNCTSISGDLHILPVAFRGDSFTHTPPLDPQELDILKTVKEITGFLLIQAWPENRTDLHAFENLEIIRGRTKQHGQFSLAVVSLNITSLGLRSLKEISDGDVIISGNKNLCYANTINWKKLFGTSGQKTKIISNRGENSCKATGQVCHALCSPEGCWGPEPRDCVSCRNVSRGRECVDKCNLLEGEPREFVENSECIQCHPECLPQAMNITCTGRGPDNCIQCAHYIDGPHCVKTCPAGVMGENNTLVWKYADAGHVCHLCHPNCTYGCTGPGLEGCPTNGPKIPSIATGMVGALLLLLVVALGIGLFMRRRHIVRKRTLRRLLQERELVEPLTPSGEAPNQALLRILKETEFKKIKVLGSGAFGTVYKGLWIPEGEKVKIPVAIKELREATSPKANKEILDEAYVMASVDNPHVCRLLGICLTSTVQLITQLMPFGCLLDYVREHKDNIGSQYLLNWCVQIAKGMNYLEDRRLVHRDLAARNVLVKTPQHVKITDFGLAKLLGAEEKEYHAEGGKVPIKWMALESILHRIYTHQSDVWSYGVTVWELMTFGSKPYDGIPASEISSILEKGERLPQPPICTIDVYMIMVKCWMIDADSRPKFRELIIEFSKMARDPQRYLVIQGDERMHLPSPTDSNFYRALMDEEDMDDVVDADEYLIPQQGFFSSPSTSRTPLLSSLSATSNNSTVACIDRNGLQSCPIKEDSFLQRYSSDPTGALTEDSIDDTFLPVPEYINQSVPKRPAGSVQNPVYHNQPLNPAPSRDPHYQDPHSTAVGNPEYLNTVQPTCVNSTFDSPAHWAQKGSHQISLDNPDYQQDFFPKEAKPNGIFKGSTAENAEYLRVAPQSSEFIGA
T4 sequence (P17948 27-1338): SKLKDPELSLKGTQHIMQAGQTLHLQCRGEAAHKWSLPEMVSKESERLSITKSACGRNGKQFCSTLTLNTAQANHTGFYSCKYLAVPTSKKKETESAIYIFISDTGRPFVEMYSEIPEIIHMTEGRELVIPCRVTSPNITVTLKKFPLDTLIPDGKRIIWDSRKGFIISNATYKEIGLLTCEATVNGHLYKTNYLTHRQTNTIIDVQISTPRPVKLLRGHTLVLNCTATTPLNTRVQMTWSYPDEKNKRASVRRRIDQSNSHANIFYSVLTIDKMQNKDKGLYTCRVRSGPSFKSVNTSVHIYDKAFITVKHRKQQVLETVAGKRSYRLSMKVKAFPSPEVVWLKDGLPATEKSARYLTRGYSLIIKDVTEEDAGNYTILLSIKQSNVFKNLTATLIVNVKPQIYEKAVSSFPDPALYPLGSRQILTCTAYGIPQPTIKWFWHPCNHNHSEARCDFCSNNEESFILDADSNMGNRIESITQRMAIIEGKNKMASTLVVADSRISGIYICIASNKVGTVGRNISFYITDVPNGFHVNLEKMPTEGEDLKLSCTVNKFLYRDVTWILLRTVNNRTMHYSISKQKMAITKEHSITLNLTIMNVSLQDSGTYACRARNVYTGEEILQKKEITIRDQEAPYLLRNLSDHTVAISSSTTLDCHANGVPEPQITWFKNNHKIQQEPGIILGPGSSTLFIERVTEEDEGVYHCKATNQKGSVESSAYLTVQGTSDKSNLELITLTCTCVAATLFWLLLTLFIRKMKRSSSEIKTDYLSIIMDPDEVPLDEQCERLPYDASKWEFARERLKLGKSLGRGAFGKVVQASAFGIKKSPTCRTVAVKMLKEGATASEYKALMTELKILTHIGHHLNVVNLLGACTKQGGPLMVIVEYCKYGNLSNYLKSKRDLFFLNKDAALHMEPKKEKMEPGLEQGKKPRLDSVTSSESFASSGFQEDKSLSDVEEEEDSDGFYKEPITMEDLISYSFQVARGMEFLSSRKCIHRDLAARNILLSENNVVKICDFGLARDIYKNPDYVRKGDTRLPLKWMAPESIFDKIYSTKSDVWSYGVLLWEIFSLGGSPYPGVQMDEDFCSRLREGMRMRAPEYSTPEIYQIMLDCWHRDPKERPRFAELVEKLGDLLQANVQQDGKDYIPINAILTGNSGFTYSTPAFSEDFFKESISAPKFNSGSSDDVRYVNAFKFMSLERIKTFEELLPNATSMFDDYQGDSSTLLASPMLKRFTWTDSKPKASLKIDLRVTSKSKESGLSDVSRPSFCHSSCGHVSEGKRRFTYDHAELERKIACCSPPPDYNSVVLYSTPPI

Turning to `CNC(=O)c1ccccc1Sc1ccn2c(/C=C/c3ccccn3)ncc2c1` [Compound I-27, N-methyl-2-({3-[(E)-2-(pyridin-2-yl)ethenyl]imidazo[1,5-a]pyridin-7-yl}thio)benzamide], the IC50 in data set [1] is 6 to 60 µM; in data set [2], greater than 100 nM; in data set [3], greater than 100 nM; in data set [4], greater than 100 nM. Also, the unbound share (fraction unbound) at 2 h, 2 µM in data set [5] is 0.01 to 0.05.
With `CNC(=O)c1ccccc1Sc1ccc2c(/C=C/c3ccc(OC[C@H]4CCN(C)C4)cn3)n[nH]c2c1` [Compound I-37], the half-maximal inhibitory concentration (IC50) is 6 to 60 µM in data set [1], no more than 1 nM in data set [2], 1 to 10 nM in data set [3] and no more than 1 nM in data set [4]. Also, in data set [5], the unbound share (fraction unbound) at 2 h, 2 µM was in the range of 0.01 to 0.05.
As to `CNC(=O)c1ccccc1Sc1ccc2c(/C=C/c3ccc(O)cn3)n[nH]c2c1` [Compound I-10, 2-({3-[(E)-2-(5-hydroxypyridin-2-yl)ethenyl]-1H-indazol-6-yl}thio)-N-methylbenzamide], in data set [3], the IC50 is no more than 1 nM.
`CNC(=O)c1ccccc1Sc1ccc2c(/C=C/c3ccc(OCC4CCN(C)C4)cn3)n[nH]c2c1` (stereo not drawn) [Compound I-1]: the 50% inhibitory concentration (IC50) in data set [1] is 6 to 60 µM; in data set [2] it was no more than 1 nM; in data set [3], no more than 1 nM; in data set [4], no more than 1 nM. This molecule returned a solubility at 8 h in data set [6] of 14.2 µg/mL (≈ 28.4 µM). In addition, in data set [5], the unbound share (fraction unbound) at 2 h, 2 µM is greater than 0.05.
Take `CNC(=O)c1ccccc1Sc1ccc2c(/C=C/c3ccc(OCCC4CCN(C)CC4)cn3)n[nH]c2c1` [Compound I-5]: the solubility at 8 h in data set [6] was found to be 177 µg/mL (≈ 335 µM). The half-inhibitory concentration (IC50) in data set [2], in data set [3] and in data set [4] was no more than 1 nM in each case. In data set [5], this molecule gave an unbound share (fraction unbound) at 2 h, 2 µM of 0.01 to 0.05.
As to `CNC(=O)c1ccccc1Sc1ccc2c(cnn2-c2ccc(OCCN3CCCC3)cn2)c1` [Compound I-29, N-methyl-2-[(1-{5-[2-(pyrrolidin-1-yl)ethoxy]pyridin-2-yl}-1H-indazol-5-yl)sulfanyl]benzamide], the IC50 in data set [1] is greater than 60 µM; in data set [2], greater than 100 nM; in data set [3] it was greater than 100 nM; in data set [4] it was greater than 100 nM.
`CNC(=O)c1ccccc1Sc1ccc2c(/C=C/c3ccc(OCCN4CCOCC4)cn3)n[nH]c2c1` [Compound I-3, N-methyl-2-((3-((E)-2-(5-(2-(morpholin-4-yl)ethoxy)pyridin-2-yl)ethenyl)-1H-indazol-6-yl)thio)benzamide] returned a solubility at 8 h in data set [6] of 0.5 µg/mL (≈ 0.97 µM). The IC50 in data set [3] and in data set [4] was no more than 1 nM throughout. In data set [5], the fraction unbound at 2 h, 2 µM lay within 0.01 to 0.05.
Turning to `O=C(NC1CC1)c1ccccc1Sc1ccc2c(/C=C/c3cccc(CCCN4CCCC4)n3)n[nH]c2c1` [Compound I-121], the concentration for half-maximal inhibition (IC50) in data set [2] and in data set [3] was no more than 1 nM in each case.
For `CN1CCN(c2ccc(/C=C/c3n[nH]c4cc(Sc5ccccc5C(=O)NC5CC5)ccc34)nc2)CC1` [Compound I-38, N-cyclopropyl-2-({3-[(E)-2-[5-(4-methylpiperazin-1-yl)pyridin-2-yl]ethenyl]-1H-indazol-6-yl}thio)benzamide], the IC50 in data set [2], in data set [3] and in data set [4] was no more than 1 nM each time. In data set [5], this molecule showed an unbound share (fraction unbound) at 2 h, 2 µM of 0.01 to 0.05.
As for `CNC(=O)c1ccccc1Sc1ccc2c(/C=C/c3ccc(OCC4CCNC4)cn3)n[nH]c2c1` (stereo not drawn) [Compound I-7], the IC50 was 6 to 60 µM in data set [1], 1 to 10 nM in data set [2], 1 to 10 nM in data set [3] and no more than 1 nM in data set [4]. The molecule also returned a solubility at 8 h in data set [6] of 294 µg/mL (≈ 605 µM). Also, the fraction unbound at 2 h, 2 µM in data set [5] was greater than 0.05.
For `CNC(=O)c1ccccc1Sc1ccc2c(/C=C/c3ccc(OCC4CCCN4C)cn3)n[nH]c2c1` (stereo not drawn) [Compound I-2, N-methyl-2-((3-((E)-2-(5-((1-methylpyrrolidin-2-yl)methoxy)pyridin-2-yl)ethenyl)-1H-indazol-6-yl)thio)benzamide], the IC50 in data set [1] was 6 to 60 µM; in data set [2] it was no more than 1 nM; in data set [3], 1 to 10 nM; in data set [4] it was no more than 1 nM. The same molecule had a solubility at 8 h in data set [6] of 28.8 µg/mL (≈ 57.6 µM). Besides, in data set [5], the fraction unbound at 2 h, 2 µM was in the range of 0.01 to 0.05.
For `CNC(=O)c1ccccc1Sc1ccc2c(NC(=O)NCCN3CCN(C)CC3)n[nH]c2c1` [Compound I-31], the IC50 was greater than 60 µM in data set [1], greater than 100 nM in data set [2], greater than 100 nM in data set [3] and greater than 100 nM in data set [4]. In data set [6], this molecule gave a solubility at 8 h of 542 µg/mL (≈ 1160 µM). Further, the unbound share (fraction unbound) at 2 h, 2 µM in data set [5] fell in the range of 0.01 to 0.05.
Regarding `CNC(=O)c1ccccc1Sc1ccc2c(Nc3ccc(OCCN4CCCC4)cn3)n[nH]c2c1` [Compound I-30, N-methyl-2-((3-((5-(2-(pyrrolidin-1-yl)ethoxy)pyridin-2-yl)amino)-1H-indazol-6-yl)thio)benzamide], the half-inhibitory concentration (IC50) in data set [2], in data set [3] and in data set [4] was greater than 100 nM each time.
Take `CNC(=O)c1ccccc1Sc1ccc2c(/C=C/c3ccccn3)ncn2c1` [Compound I-26, N-methyl-2-({1-[(E)-2-(pyridin-2-yl)ethenyl]imidazo[1,5-a]pyridin-6-yl}thio)benzamide]: the concentration for half-maximal inhibition (IC50) in data set [1] was greater than 60 µM; in data set [2], greater than 100 nM; in data set [3], greater than 100 nM; in data set [4], greater than 100 nM. Besides, in data set [6], the solubility at 8 h was 142 µg/mL (≈ 367 µM). This molecule yielded an unbound share (fraction unbound) at 2 h, 2 µM in data set [5] of 0.01 to 0.05.
Consider `O=C(O)c1ccccc1Sc1ccn2c(/C=C/c3ccccn3)ncc2c1` [Compound I-28, 2-({3-[(E)-2-(pyridin-2-yl)ethenyl]imidazo[1,5-a]pyridin-7-yl}thio)benzoic acid], for which the IC50 in data set [1] was no more than 0.6 µM; in data set [2] it was greater than 100 nM; in data set [3], greater than 100 nM; in data set [4], greater than 100 nM. The fraction unbound at 2 h, 2 µM in data set [5] was greater than 0.05.
Consider `CNC(=O)c1ccccc1Sc1ccc2c(/C=C/c3ccn(CCN4CCCC4)n3)n[nH]c2c1` [Compound I-13], for which the IC50 in data set [3] was no more than 1 nM. Also, in data set [5], the free fraction (fraction unbound) at 2 h, 2 µM lay in the range of 0.01 to 0.05.
In data set [6], `CNC(=O)c1ccccc1Sc1ccc2c(/C=C/c3ccc(OCCN4CCN(C)CC4)cn3)n[nH]c2c1` [Compound I-4] showed a solubility at 8 h of 413 µg/mL (≈ 781 µM). Further, the half-inhibitory concentration (IC50) in data set [2], in data set [3] and in data set [4] was no more than 1 nM each time. This molecule also had a fraction unbound at 2 h, 2 µM in data set [5] greater than 0.05.
As to `CNC(=O)c1ccccc1Sc1ccc2c(C#Cc3cc(OCCN4CCCC4)ccn3)n[nH]c2c1` [Compound I-23], the solubility at 8 h in data set [6] amounted to 859 µg/mL (≈ 1730 µM). Also, in data set [3], the 50% inhibitory concentration (IC50) was greater than 100 nM. Also, the fraction unbound at 2 h, 2 µM in data set [5] was in the range of 0.01 to 0.05.
